Molecules are shown by their SMILES.

The test system of the assay is Guinea Pig trachea. Kind of assay: In-vitro functional assay, carbachol-contracted isolated trachea. The conditions noted are these: Cavia porcellus; isolated tissue, 1 μM carbachol contraction; range stated for the group of tested compounds. The procedure: The contractile results are expressed as % of control E max. ED50 values are calculated by fitting a non-linear regression curve (Graph Pad Prism). pKb values are calculated by the formula pKb=−log [(molar concentration of antagonist/(dose ratio−1))]
where, dose ratio=ED50 in the presence of antagonist/ED50 in the absence of antagonist.
The Guinea Pig (400-600 gm) was procured and trachea was removed under anesthesia (sodium pentobarbital, 300 mg/kg i.p) and was immediately kept it in ice-cold Krebs Henseleit buffer. Indomethacin (10 μM) was present throughout the KH buffer to prevent the formation of bronchoactive prostanoids.
The tissue of adherent fascia was cleaned and was cut into strips of equal size (with approximately 4-5 tracheal rings in each strip). The epithelium was removed by careful rubbing, minimizing damage to the smooth muscle. […] Opposite ends of the cut rings were tied with the help of a thread. The tissue was mounted in isolated tissue baths containing 10 ml Krebs Henseleit buffer maintained at 37° C. and bubbled with carbogen, at a basal tension of 1 gm. The buffer was changed 4-5 times for about an hour. The tissue was equilibrated for 1 hour for stabilization. After 1 hour, the tissue was challenged with 1 μM carbachol. This was repeated after every 2-3 washes till two similar consecutive responses were obtained. At the end of stabilization, the tissue was washed for 30 minutes followed by incubation with suboptimal dose of MRA/Vehicle for 20 minutes prior to contraction of the tissues with 1 μM carbachol. The contractile response of tissues was recorded either on Powerlab data acquisition system or on Grass polygraph (Model 7). The relaxation was expressed as percentage of maximum carbachol response. The data was expressed as mean±s.e. mean for n observations. The EC50 was calculated as the concentration producing 50% of the maximum relaxation to 1 μM carbachol. The percent relaxation was compared between the treated and control tissues using non-parametric unpaired t-test. A p value of <0.05 was considered to be statistically significant.
The molecule `Cc1n(CCOC(=O)[C@](O)(c2ccccc2)[C@@H]2CCC(F)(F)C2)cc[n+]1C` [Compound No. 19, 1-[2-({(2R)-2-[(1R)-3,3-Difluorocyclopentyl]-2-hydroxy-2-phenylacetyl}oxy)ethyl]-2,3-dimethyl-1H-imidazol-3-ium bromide] gave a Kb of 0.1 to 3.16 nM.
To `Cc1n(CCCOC(=O)[C@](O)(c2ccccc2)[C@@H]2CCCC(F)(F)C2)cc[n+]1Cc1ccc(F)cc1` [Compound No. 31, 1-[3-({(2R)-2-[(1R)-3,3-Difluorocyclohexyl]-2-hydroxy-2-phenylacetyl}oxy)propyl]-3-(4-fluorobenzyl)-2-methyl-1H-imidazol-3-ium bromide] belongs 0.1 to 3.16 nM; to `Cc1n(CCCOC(=O)[C@](O)(c2ccccc2)[C@@H]2CCCC(F)(F)C2)cc[n+]1Cc1ccc(Br)cc1` [Compound No. 9, 3-(4-Bromobenzyl)-1-[3-({(2R)-2-[(1R)-3,3-difluorocyclohexyl]-2-hydroxy-2-phenylacetyl}oxy)propyl]-2-methyl-1H-imidazol-3-ium bromide], 0.1 to 3.16 nM.
Turning to `CCCC[n+]1ccn(CCCOC(=O)[C@](O)(c2ccccc2)[C@@H]2CCC(F)(F)C2)c1C` [Compound No. 51, 3-Butyl-1-[3-({(2R)-2-[(1R)-3,3-difluorocyclopentyl]-2-hydroxy-2-phenylacetyl}oxy)propyl]-2-methyl-1H-imidazol-3-ium bromide], the Kb was 0.1 to 3.16 nM.
To `Cc1n(CCOC(=O)[C@](O)(c2ccccc2)[C@@H]2CCC(F)(F)C2)cc[n+]1CC1CC1` [Compound No. 85, 3-(Cyclopropylmethyl)-1-[2-({(2R)-2-[(1R)-3,3-difluorocyclopentyl]-2-hydroxy-2-phenylacetyl}oxy)ethyl]-2-methyl-1H-imidazol-3-ium bromide] belongs 0.1 to 3.16 nM.
The result for `Cc1n(CCCOC(=O)C(O)(c2ccccc2)C2CCCCCC2)cc[n+]1C` (centres unmarked) [Compound No. 6, 1-(3-{[Cycloheptyl(hydroxy)phenylacetyl]oxy}propyl)-2,3-dimethyl-1H-imidazol-3-ium iodide] reads 0.1 to 3.16 nM.
In the case of `Cc1n(CCCOC(=O)[C@](O)(c2ccccc2)[C@@H]2CCC(F)(F)C2)cc[n+]1Cc1ccc(F)cc1` [Compound No. 13, 1-[3-({(2R)-2-[(1R)-3,3-Difluorocyclopentyl]-2-hydroxy-2-phenylacetyl}oxy)propyl]-3-(4-fluorobenzyl)-2-methyl-1H-imidazol-3-ium bromide], the Kb is 0.1 to 3.16 nM.
The molecule `Cc1n(CCOC(=O)[C@](O)(c2ccccc2)[C@@H]2CCC(F)(F)C2)cc[n+]1Cc1ccccc1` [Compound No. 17, 3-Benzyl-1-[2-({(2R)-2-[(1R)-3,3-difluorocyclopentyl]-2-hydroxy-2-phenylacetyl}oxy)ethyl]-2-methyl-1H-imidazol-3-ium chloride] showed a Kb of 0.1 to 3.16 nM.
`Cc1n(CCCOC(=O)[C@](O)(c2ccccc2)[C@@H]2CCC(F)(F)C2)cc[n+]1Cc1ccccc1` [Compound No. 28, 3-Benzyl-1-[3-({(2R)-2-[(1R)-3,3-difluorocyclopentyl]-2-hydroxy-2-phenylacetyl}oxy)propyl]-2-methyl-1H-imidazol-3-ium chloride] had a Kb of 0.1 to 3.16 nM.
To `Cc1n(CCCOC(=O)[C@](O)(c2ccccc2)[C@@H]2CCCC(F)(F)C2)cc[n+]1Cc1ccccc1` [Compound No. 37, 3-Benzyl-1-[3-({(2R)-2-[(1R)-3,3-difluorocyclohexyl]-2-hydroxy-2-phenylacetyl}oxy)propyl]-2-methyl-1H-imidazol-3-ium chloride] belongs 0.1 to 3.16 nM; to `Cc1n(CCCOC(=O)[C@](O)(c2ccccc2)[C@@H]2CCC(F)(F)C2)cc[n+]1CC1CC1` [Compound No. 22, 3-(Cyclopropylmethyl)-1-[3-({(2R)-2-[(1R)-3,3-difluorocyclopentyl]-2-hydroxy-2-phenylacetyl}oxy)propyl]-2-methyl-1H-imidazol-3-ium bromide], 0.1 to 3.16 nM.
Regarding `CCCC[n+]1ccn(CCCOC(=O)C(O)(c2cccs2)c2cccs2)c1C` [Compound No. 95, 3-Butyl-1-{3-[2-hydroxy(di-2-thienyl)acetoxy]propyl}-2-methyl-1H-imidazol-3-ium bromide], the Kb was 0.1 to 3.16 nM.
The molecule `CC[n+]1ccn(CCCOC(=O)[C@](O)(c2ccccc2)[C@@H]2CCC(F)(F)C2)c1C` [Compound No. 21, 1-[3-({(2R)-2-[(1R)-3,3-Difluorocyclopentyl]-2-hydroxy-2-phenylacetyl}oxy)propyl]-3-ethyl-2-methyl-1H-imidazol-3-ium iodide] showed a Kb of 0.1 to 3.16 nM.
To `Cc1n(CCCOC(=O)[C@](O)(c2ccccc2)[C@@H]2CCC(F)(F)C2)cc[n+]1CCc1ccccc1` [Compound No. 29, 1-[3-({(2R)-2-[(1R)-3,3-Difluorocyclopentyl]-2-hydroxy-2-phenylacetyl}oxy)propyl]-2-methyl-3-(2-phenylethyl)-1H-imidazol-3-ium bromide] belongs 0.1 to 3.16 nM; to `Cc1n(CCCOC(=O)[C@](O)(c2ccccc2)[C@@H]2CCC(F)(F)C2)cc[n+]1CC1CCCCC1` [Compound No. 23, 3-(Cyclohexylmethyl)-1-[3-({(2R)-2-[(1R)-3,3-difluorocyclopentyl]-2-hydroxy-2-phenylacetyl}oxy)propyl]-2-methyl-1H-imidazol-3-ium bromide], 0.1 to 3.16 nM.
For the molecule `Cc1n(CCCOC(=O)[C@](O)(c2ccccc2)[C@@H]2CCCC(F)(F)C2)cc[n+]1C` [Compound No. 5, 1-[3-({(2R)-2-[(1R)-3,3-Difluorocyclohexyl]-2-hydroxy-2-phenylacetyl}oxy)propyl]-2,3-dimethyl-1H-imidazol-3-ium iodide], the Kb was 0.1 to 3.16 nM.
The result for `Cc1n(CCCOC(=O)[C@](O)(c2ccccc2)[C@@H]2CCC(F)(F)C2)cc[n+]1C` [Compound No. 30, 1-[3-({(2R)-2-[(1R)-3,3-Difluorocyclopentyl]-2-hydroxy-2-phenylacetyl}oxy)propyl]-2,3-dimethyl-1H-imidazol-3-ium bromide] reads 0.1 to 3.16 nM.

(Values after patent publication US20100168197A1, “MUSCARINIC RECEPTOR ANTAGONISTS” (priority 2007, published 2010).)
